Among the data in patent US20240358702A1, “CYCLIC UREA KRAS INHIBITORS” (INCYTE CORPORATION, priority 2023, published 2024) are G12D_exchange, IC50 and G12V_exchange values, retold here.

One assay concerns the target KRAS G12D (Homo sapiens, UniProt P01116, G12D). The assay is described as follows: GDP-GTP exchange assay (bodipy-GDP/GppNHp, SOS1), KRAS G12D. The settings on record: KRAS_G12D exchange assay IC50; 4 h pre-incubation; value for the most potent isomer quoted. The class given is biochemical. As for the experimental part:
(§1) The inhibitor potency of the exemplified compounds was determined in a fluorescence based guanine nucleotide exchange assay, which measures the exchange of bodipy-GDP (fluorescently labeled GDP) for GppNHp (Non-hydrolyzable GTP analog) to generate the active state of KRAS in the presence of SOS1 (guanine nucleotide exchange factor). Inhibitors were serially diluted in DMSO and a volume of 0.1 μL was transferred to the wells of a black low volume 384-well plate. 5 μL/well volume of bodipy-loaded KRAS G12D diluted to […] in assay buffer (25 mM Hepes pH 7.5, 50 mM NaCl, 10 mM mgCl2 and 0.01% Brij-35) was added to the plate and pre-incubated with inhibitor for 4 h at ambient temperature. Appropriate controls (enzyme with no inhibitor or with a G12D inhibitor) were included on the plate. The exchange was initiated by the addition of a 5 μL/well volume containing 1 mM GppNHp and 300 nM SOS1 in assay buffer. The 10 μL/well reaction concentration of the bodipy-loaded KRAS G12D, GppNHp, and SOS1 were 2.5 nM, 500 uM, and 150 nM, respectively. The reaction plates were incubated at ambient temperature for 2 h, a time estimated for complete GDP-GTP exchange in the absence of inhibitor. For the KRAS G12V mutant, similar guanine nucleotide exchange assays were used with 2.5 nM as final concentration for the bodipy loaded KRAS proteins and 3 h incubation after adding GppNHp-SOS1 mixture. A cyclic peptide described to selectively bind G12D mutant (Sakamoto et al., BBRC 484.3 (2017), 605-611) or internal compounds with confirmed binding were used as positive controls in the assay plates. Fluorescence intensities were measured on a PheraStar plate reader instrument (BMG Labtech) with excitation at 485 nm and emission at 520 nm.
(§2) Either GraphPad prism or Genedata Screener SmartFit was used to analyze the data. The IC50 values were derived by fitting the data to a four parameter logistic equation producing a sigmoidal dose-response curve with a variable Hill coefficient.
(§3) The symbol “t” indicates IC50≤100 nM, “††” indicates IC50>100 nM but ≤1 μM; and “†††” indicates IC50 is >1 μM but ≤5 μM, “††††” indicates IC50 is >5 μM but ≤10 μM. “NA” indicates IC50 not available.

The target in a further assay is KRAS G12V (Homo sapiens, UniProt P01116, G12V). The assay is described as follows: GDP-GTP exchange assay (bodipy-GDP/GppNHp, SOS1), KRAS G12V. The class given is biochemical. Conditions: KRAS_G12V exchange assay IC50, value for the most potent isomer quoted; for IC50: read-out: G12V_exchange. As for the experimental part:
as §1, §2, §3

Sequence of KRAS G12V (P01116 1-188 isoform P01116-2 G12V): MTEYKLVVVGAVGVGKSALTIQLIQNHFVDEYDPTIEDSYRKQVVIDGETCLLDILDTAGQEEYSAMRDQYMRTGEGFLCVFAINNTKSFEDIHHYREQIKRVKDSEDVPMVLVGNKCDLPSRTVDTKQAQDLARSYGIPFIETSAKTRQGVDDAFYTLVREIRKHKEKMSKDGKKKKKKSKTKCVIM
Sequence of KRAS G12D (P01116 1-188 isoform P01116-2 G12D): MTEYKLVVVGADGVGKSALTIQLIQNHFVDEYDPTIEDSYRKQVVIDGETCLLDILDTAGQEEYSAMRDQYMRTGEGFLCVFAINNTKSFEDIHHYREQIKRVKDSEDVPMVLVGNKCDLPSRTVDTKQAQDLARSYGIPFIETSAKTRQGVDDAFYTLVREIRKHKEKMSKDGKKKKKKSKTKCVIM

`Cc1nc2c(F)c(-c3cccc(Cl)c3Cl)c(CCC#N)cc2c2c1cc([C@@H](C)N1CCCN(c3ccnc(N(C)C)c3)C1=O)n2[C@H]1[C@H]2CN[C@@H]1C2` [Example 30, 3-(1-((1R,4R,5S)-2-azabicyclo[2.1.1]hexan-5-yl)-7-(2,3-dichlorophenyl)-2-((R)-1-(3-(2-(dimethylamino)pyridin-4-yl)-2-oxotetrahydropyrimidin-1(2H)-yl)ethyl)-6-fluoro-4-methyl-1H-pyrrolo[3,2-c]quinolin-8-yl)propanenitrile]: the G12D_exchange result on KRAS G12D is given as “†”. In addition, the IC50 at KRAS G12V lay within 0.1 to 1 µM.

In the case of `COc1cc(N2CCCN([C@H](C)c3cc4c(C)nc5c(F)c(-c6cccc(Cl)c6Cl)c(CCC#N)cc5c4n3[C@H]3[C@H]4CN[C@@H]3C4)C2=O)ccn1` [Example 22, 3-(1-((1R,4R,5S)-2-azabicyclo[2.1.1]hexan-5-yl)-7-(2,3-dichlorophenyl)-6-fluoro-2-((R)-1-(3-(2-methoxypyridin-4-yl)-2-oxotetrahydropyrimidin-1(2H)-yl)ethyl)-4-methyl-1H-pyrrolo[3,2-c]quinolin-8-yl)propanenitrile], the G12D_exchange result on KRAS G12D is “†”. For the same molecule, the G12V_exchange entry on KRAS G12V was “†”.

As for `Cc1nc2c(F)c(-c3cccc(Cl)c3Cl)c(CCC#N)cc2c2c1cc([C@@H](C)N1CCCN(c3ccnnc3)C1=O)n2[C@H]1[C@H]2CN[C@@H]1C2` [Example 9, 3-(1-((1R,4R,5S)-2-azabicyclo[2.1.1]hexan-5-yl)-7-(2,3-dichlorophenyl)-6-fluoro-4-methyl-2-((R)-1-(2-oxo-3-(pyridazin-4-yl)tetrahydropyrimidin-1(2H)-yl)ethyl)-1H-pyrrolo[3,2-c]quinolin-8-yl)propanenitrile], on KRAS G12D, the G12D_exchange result was “†”. In addition, at KRAS G12V, the IC50 lay within 0.1 to 1 µM.

For the molecule `Cc1cc(N2CCCN([C@H](C)c3cc4c(C)nc5c(F)c(-c6cccc(Cl)c6Cl)c(CCC#N)cc5c4n3[C@H]3[C@H]4CN[C@@H]3C4)C2=O)ccn1` [Example 26, 3-(1-((1R,4R,5S)-2-azabicyclo[2.1.1]hexan-5-yl)-7-(2,3-dichlorophenyl)-6-fluoro-4-methyl-2-((R)-1-(3-(2-methylpyridin-4-yl)-2-oxotetrahydropyrimidin-1(2H)-yl)ethyl)-1H-pyrrolo[3,2-c]quinolin-8-yl)propanenitrile], the G12D_exchange result on KRAS G12D is “†”. In addition, the IC50 at KRAS G12V lay within 0.1 to 1 µM.

As for `Cc1nc2c(F)c(-c3cccc(Cl)c3Cl)c(CCC#N)cc2c2c1cc([C@@H](C)N1CCCN(c3ccccn3)C1=O)n2[C@H]1[C@H]2CN[C@@H]1C2` [Example 19, 3-(1-((1R,4R,5S)-2-azabicyclo[2.1.1]hexan-5-yl)-7-(2,3-dichlorophenyl)-6-fluoro-4-methyl-2-((R)-1-(2-oxo-3-(pyridin-2-yl)tetrahydropyrimidin-1(2H)-yl)ethyl)-1H-pyrrolo[3,2-c]quinolin-8-yl)propanenitrile], at KRAS G12D, the G12D_exchange entry is reported as “†”. At KRAS G12V, the G12V_exchange entry is listed as “†”.

Turning to `Cc1nc2c(F)c(-c3cccc(Cl)c3Cl)c(CCC#N)cc2c2c1cc([C@@H](C)N1CCCN(c3cccnc3)C1=O)n2[C@H]1[C@H]2CN[C@@H]1C2` [Example 23, 3-(1-((1R,4R,5S)-2-azabicyclo[2.1.1]hexan-5-yl)-7-(2,3-dichlorophenyl)-6-fluoro-4-methyl-2-((R)-1-(2-oxo-3-(pyridin-3-yl)tetrahydropyrimidin-1(2H)-yl)ethyl)-1H-pyrrolo[3,2-c]quinolin-8-yl)propanenitrile], the G12D_exchange result at KRAS G12D is reported as “†”. The G12V_exchange result at KRAS G12V is recorded as “†”.

As for `Cc1nc2c(F)c(-c3cccc(Cl)c3Cl)c(CCC#N)cc2c2c1cc([C@@H](C)N1CCCN(c3cncnc3)C1=O)n2[C@H]1[C@H]2CN[C@@H]1C2` (single isomer, unassigned) [Example 10], the G12D_exchange entry at KRAS G12D was “†”. In addition, the G12V_exchange result on KRAS G12V is recorded as “†”.
